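Step 1: Grow cells in 96-well plates. Step 2: Expose to compound for 48 hours at 5 concentrations. Step 3: Interpolate endpoints linearly; if unreached, use highest concentration. Here, GI50 denotes the concentration required for 50% inhibition of growth. TGI marks complete inhibition of growth.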
Experiments:
Experiment in all cases: growth of human tumour cells (NCI), 48 h
[1] = system: HCT-15 colon
[2] = system: A498 renal
[3] = system: SF-539 CNS
[4] = system: UO-31 renal
[5] = system: SK-MEL-5 melanoma
[6] = system: U251 CNS
[7] = system: 786-0 renal
[8] = system: IGROV1 ovarian
[9] = system: HCC-2998 colon
[10] = system: COLO 205 colon
[11] = system: SK-MEL-28 melanoma
[12] = system: SW-620 colon
[13] = system: SN12C renal
[14] = system: SNB-19 CNS
[15] = system: NCI-H460 lung
[16] = system: UACC-257 melanoma
[17] = system: HOP-62 NSCLC
[18] = system: LOX IMVI melanoma
[19] = system: K-562 leukemia
[20] = system: SF-268 CNS
[21] = system: CAKI-1 renal
[22] = system: MOLT-4 leukemia
[23] = system: KM12 colon
[24] = system: OVCAR-8 ovarian
[25] = system: OVCAR-5 ovarian
[26] = system: SK-OV-3 ovarian
[27] = system: OVCAR-4 ovarian
[28] = system: SNB-75 CNS
[29] = system: MCF7 breast
[30] = system: MDA-MB-231 breast
[31] = system: HS 578T breast
[32] = system: UACC-62 melanoma
[33] = system: TK-10 renal
[34] = system: M14 melanoma
[35] = system: PC-3 prostate
[36] = system: SF-295 CNS
[37] = system: HL-60(TB) leukemia
[38] = system: EKVX NSCLC
[39] = system: MDA-MB-435
[40] = system: SK-MEL-2 melanoma
[41] = system: DU-145 prostate
[42] = system: NCI-H522 lung
[43] = system: ACHN renal
[44] = system: NCI-H226 lung
[45] = system: HOP-92 NSCLC
[46] = system: MALME-3M melanoma
[47] = system: NCI/ADR-RES ovarian
[48] = system: A549 NSCLC
[49] = system: T-47D breast
[50] = system: HT29 colon
[51] = system: BT-549 breast
[52] = system: HCT-116 colon

Question: For `Cc1ccc(C2CC(c3ccc(Nc4nc(NCCO)nc(Nc5ccc(Cl)cc5)n4)cc3)=Nc3c(N)nc(N)nc3N2)cc1` (centres undefined), which GI50 [1] is on record?
Answer: 1480 nM

Question: And the TGI [1]?
Answer: 2950 nM

Question: And the GI50 [2]?
Answer: 3850 nM

Question: And the TGI [2]?
Answer: 17700 nM

Question: What about the GI50 [3] of the same compound?
Answer: 1570 nM

Question: What about the TGI [3] of the same compound?
Answer: 2970 nM

Question: And the GI50 [4]?
Answer: 1640 nM

Question: And the TGI [4]?
Answer: 3000 nM

Question: What about the GI50 [5] of the same compound?
Answer: 1560 nM

Question: What about the TGI [5] of the same compound?
Answer: 2910 nM

Question: What about the GI50 [6] of the same compound?
Answer: 1600 nM

Question: And the TGI [6]?
Answer: 3010 nM

Question: What about the GI50 [7] of the same compound?
Answer: 1640 nM

Question: What about the TGI [7] of the same compound?
Answer: 3060 nM

Question: What about the GI50 [8] of the same compound?
Answer: 1650 nM

Question: What about the TGI [8] of the same compound?
Answer: 3140 nM

Question: And the GI50 [9]?
Answer: 1550 nM

Question: And the TGI [9]?
Answer: 2930 nM

Question: What about the GI50 [10] of the same compound?
Answer: 1670 nM

Question: And the TGI [10]?
Answer: 3190 nM

Question: And the GI50 [11]?
Answer: 1770 nM

Question: What about the TGI [11] of the same compound?
Answer: 3160 nM

Question: And the GI50 [12]?
Answer: 1790 nM

Question: And the TGI [12]?
Answer: 3310 nM

Question: What about the GI50 [13] of the same compound?
Answer: 1790 nM

Question: What about the TGI [13] of the same compound?
Answer: 3380 nM

Question: And the GI50 [14]?
Answer: 1570 nM

Question: What about the TGI [14] of the same compound?
Answer: 3000 nM

Question: And the GI50 [15]?
Answer: 1800 nM

Question: And the TGI [15]?
Answer: 3390 nM

Question: And the GI50 [16]?
Answer: 1840 nM

Question: And the TGI [16]?
Answer: 3460 nM

Question: What about the GI50 [17] of the same compound?
Answer: 1680 nM

Question: What about the TGI [17] of the same compound?
Answer: 3200 nM

Question: What about the GI50 [18] of the same compound?
Answer: 1650 nM

Question: And the TGI [18]?
Answer: 3070 nM

Question: What about the GI50 [19] of the same compound?
Answer: 1340 nM

Question: And the TGI [19]?
Answer: 3920 nM

Question: And the GI50 [20]?
Answer: 1810 nM

Question: What about the TGI [20] of the same compound?
Answer: 3640 nM

Question: And the GI50 [21]?
Answer: 1640 nM

Question: What about the TGI [21] of the same compound?
Answer: 3060 nM

Question: What about the GI50 [22] of the same compound?
Answer: 1380 nM

Question: And the TGI [22]?
Answer: 3890 nM

Question: And the GI50 [23]?
Answer: 1970 nM

Question: What about the TGI [23] of the same compound?
Answer: 3860 nM

Question: What about the GI50 [24] of the same compound?
Answer: 1800 nM

Question: And the TGI [24]?
Answer: 3690 nM

Question: What about the GI50 [25] of the same compound?
Answer: 1620 nM

Question: And the TGI [25]?
Answer: 3010 nM

Question: And the GI50 [26]?
Answer: 2690 nM

Question: What about the TGI [26] of the same compound?
Answer: 7330 nM

Question: What about the GI50 [27] of the same compound?
Answer: 1850 nM

Question: And the TGI [27]?
Answer: 3630 nM

Question: And the GI50 [28]?
Answer: 1620 nM

Question: What about the TGI [28] of the same compound?
Answer: 3310 nM

Question: What about the GI50 [29] of the same compound?
Answer: 1460 nM

Question: And the TGI [29]?
Answer: 3010 nM

Question: What about the GI50 [30] of the same compound?
Answer: 1670 nM

Question: What about the TGI [30] of the same compound?
Answer: 3260 nM

Question: And the GI50 [31]?
Answer: 1790 nM

Question: And the TGI [31]?
Answer: 4360 nM

Question: And the GI50 [32]?
Answer: 1820 nM

Question: What about the TGI [32] of the same compound?
Answer: 3390 nM

Question: And the GI50 [33]?
Answer: 1900 nM

Question: What about the TGI [33] of the same compound?
Answer: 3380 nM

Question: And the GI50 [34]?
Answer: 1840 nM

Question: And the TGI [34]?
Answer: 3320 nM

Question: What about the GI50 [35] of the same compound?
Answer: 1740 nM

Question: And the TGI [35]?
Answer: 3600 nM

Question: And the GI50 [36]?
Answer: 1630 nM

Question: And the TGI [36]?
Answer: 3030 nM

Question: And the GI50 [37]?
Answer: 1710 nM

Question: And the TGI [37]?
Answer: 4710 nM

Question: And the GI50 [38]?
Answer: 1550 nM

Question: What about the TGI [38] of the same compound?
Answer: 2970 nM

Question: What about the GI50 [39] of the same compound?
Answer: 1730 nM

Question: What about the TGI [39] of the same compound?
Answer: 3130 nM

Question: And the GI50 [40]?
Answer: 1810 nM

Question: And the TGI [40]?
Answer: 3400 nM

Question: And the GI50 [41]?
Answer: 1760 nM

Question: What about the TGI [41] of the same compound?
Answer: 3190 nM

Question: And the GI50 [42]?
Answer: 1720 nM

Question: And the TGI [42]?
Answer: 3470 nM

Question: What about the GI50 [43] of the same compound?
Answer: 1720 nM

Question: What about the TGI [43] of the same compound?
Answer: 3090 nM

Question: And the GI50 [44]?
Answer: 16700 nM

Question: What about the TGI [44] of the same compound?
Answer: 38400 nM

Question: And the GI50 [45]?
Answer: 1300 nM

Question: And the TGI [45]?
Answer: 2860 nM

Question: And the GI50 [46]?
Answer: 1700 nM

Question: What about the TGI [46] of the same compound?
Answer: 3370 nM

Question: And the GI50 [47]?
Answer: 1730 nM

Question: What about the TGI [47] of the same compound?
Answer: 3480 nM

Question: And the GI50 [48]?
Answer: 1740 nM

Question: And the TGI [48]?
Answer: 3440 nM

Question: What about the GI50 [49] of the same compound?
Answer: 1670 nM

Question: What about the TGI [49] of the same compound?
Answer: 3650 nM

Question: What about the GI50 [50] of the same compound?
Answer: 1780 nM

Question: What about the TGI [50] of the same compound?
Answer: 3560 nM

Question: What about the GI50 [51] of the same compound?
Answer: 1730 nM

Question: What about the TGI [51] of the same compound?
Answer: 3140 nM

Question: What about the GI50 [52] of the same compound?
Answer: 1620 nM

Question: And the TGI [52]?
Answer: 2970 nM

From PubChem BioAssay (NCI)
